US11576902B2, “Inhibition of COVID-19 virus” (Ankh Life Sciences Limited, priority 2020, dated 2023)

Key:
[1] = tested on: SARS-CoV-2 isolate USA-WA1/2020; assay: RT-PCR assay of viral load (viral RNA copy number in cell supernatant); assay type: cell-based
[2] = tested on: Vero-E6 cells
Procedure: Cytotoxicity was measured using Promega™ CytoTox 96™ Nonradioactive Cytotoxicity Assay (cat #G1780, Promega, Madison, Wis., USA).
Cytotoxicity was measured using the Promega™ CytoTox 96™ Nonradioactive Cytotoxicity Assay kit (cat #G1780, Promega, Madison, Wis., USA) in 50 μL reactions and 96-well format (cat #161093, Thermo Fisher Scientific, Waltham, Mass., USA) according to the manufacturer's protocol, except we used 20 μL of 10× Lysis Solution per 100 μL of sample and incubated at 37° C. for 30 minutes to generate the maximum LDH release control. The assay was measured using a BioTeK Synergy™ HT plate reader (model #7091000, BioTek, Winooski, Vt., USA) at an optical density of 490 nm (OD490). Cytotoxicity was measured for ≤60 μM Cmpd. x for all three cell lines (LLC-MK2, Vero E6, and Calu-3). LLC-MK2 cells were assessed for cytotoxicity at 5 days, whereas Vero E6 and Calu-3 cells were assessed for cytotoxicity every 24 hours from 1-5 days.

[3] = tested on: SARS-CoV-2 isolate USA-WA1/2020; assay: Virus plaque formation assay; assay type: cell-based

**Q.** `COc1ccc2c3c([nH]c2c1)C(CCCC1=NCCc2c1[nH]c1cc(OC)ccc21)=NCC3` [GZ440-6, 1,3-bis(7-methoxy-4,9-dihydro-3H-pyrido[3,4-b]indol-1-yl)propane] was tested. Which “viral numbers (RNA copy number)” value ([1]; 40 μM (P<0.05), FIG. 3C) did it give?
**A.** clear reduction in viral numbers

**Q.** And the “viral load (viral RNA levels)” value ([1]; higher concentrations (20 and 40 μM), 120 hours after infection)?
**A.** decreased viral load

**Q.** And the “viral load (viral RNA levels / viral numbers)” value ([1]; lower concentrations (2, 5, 10 μM), 120 hours after infection, listed as compound of the invention)?
**A.** no consistent reduction of viral numbers

**Q.** And the average cytotoxicity values [2]?
**A.** not elevated above controls

**Q.** What about the “inhibition of plaque formation” value ([3]; 2.0 μM, 5.0 μM and 10.0 μM, Vero-E6 cells, 120 h after infection) of the same compound?
**A.** negligible inhibition

**Q.** What about the “inhibition of plaque formation” value ([3]; 20 μM and above, Student's T-Test vs. Camostat/E64d P<0.05) of the same compound?
**A.** inhibition of plaque formation was significant
